IC50 and inhibition data for four molecules are collected here from ChEMBL document CHEMBL1129862, “2,3-Substituted 2-azanorbornanes as polar -turn mimetics” (Bioorg Med Chem Lett, 1997).

Test [1] deals with T1, Substance-P receptor (Homo sapiens, UniProt P25103). In words: Tested for binding affinity against [125I]BH-SP binding to neurokinin-1 (NK-1) receptor in human IM-9 cells. It is filed as cell-based.
Test [2] has as its target T2, Substance-K receptor (Mesocricetus auratus) (UniProt P51144).
T2 sequence (whole entry): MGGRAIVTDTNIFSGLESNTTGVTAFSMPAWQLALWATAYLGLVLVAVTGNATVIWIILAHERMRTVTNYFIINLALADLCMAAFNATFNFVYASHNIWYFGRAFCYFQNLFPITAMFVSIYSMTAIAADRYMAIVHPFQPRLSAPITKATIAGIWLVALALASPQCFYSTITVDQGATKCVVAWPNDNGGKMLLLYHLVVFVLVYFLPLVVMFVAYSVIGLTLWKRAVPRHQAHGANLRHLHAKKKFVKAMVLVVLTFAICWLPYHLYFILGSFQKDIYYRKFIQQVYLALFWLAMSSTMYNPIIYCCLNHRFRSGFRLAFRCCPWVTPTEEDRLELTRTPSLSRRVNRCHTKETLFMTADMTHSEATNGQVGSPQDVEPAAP
The test can be described thus: Inhibition by the compound against [125I]NKA binding to neurokinin-2 (NK-2) receptor in hamster urinary bladder at 10 uM concentration.

For test [3], the target named is T3, Neuromedin-K receptor (Homo sapiens) (UniProt P29371).
T3 sequence (whole entry): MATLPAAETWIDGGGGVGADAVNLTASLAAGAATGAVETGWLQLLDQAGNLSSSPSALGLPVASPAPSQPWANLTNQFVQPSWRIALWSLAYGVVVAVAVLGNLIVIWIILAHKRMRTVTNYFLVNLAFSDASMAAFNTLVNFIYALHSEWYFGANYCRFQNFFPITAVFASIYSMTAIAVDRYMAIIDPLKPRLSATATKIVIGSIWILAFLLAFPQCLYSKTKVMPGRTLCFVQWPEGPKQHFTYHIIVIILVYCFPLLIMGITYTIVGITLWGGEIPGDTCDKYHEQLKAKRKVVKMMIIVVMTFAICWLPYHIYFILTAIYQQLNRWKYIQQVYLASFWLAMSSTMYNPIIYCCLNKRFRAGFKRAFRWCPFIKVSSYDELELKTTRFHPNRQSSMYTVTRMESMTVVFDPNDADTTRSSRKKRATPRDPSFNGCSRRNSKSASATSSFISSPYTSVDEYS
In words: Inhibition by the compound against [125I]-[MePhe]-NKB binding to human Tachykinin receptor 3 in stably expressed CHO cells at 10 uM concentration. Format: cell-based.

For another test, the target named is T4, Substance-K receptor (Mesocricetus auratus, UniProt P51144).
T4 sequence (P51144 whole entry): T2 sequence (whole entry)
The test can be described thus: Tested for binding affinity of compound against [125I]NKA binding to neurokinin-2 (NK-2) receptor in hamster urinary bladder.

The target in test [4] is T5, Neuromedin-K receptor (Homo sapiens, UniProt P29371).
T5 sequence (P29371 whole entry): T3 sequence (whole entry)
In words: Tested for binding affinity of compound against [125I][MePhe]-NKB binding to human Tachykinin receptor 3 in stably expressed CHO cells; Inactive. It is filed as cell-based.

The target in test [5] is T5, Neuromedin-K receptor. The test can be described thus: Tested for binding affinity of compound against [125I][MePhe]-NKB binding to Tachykinin receptor 3 in stably expressed CHO cells. Format: cell-based.
The target in test [6] is T1, Substance-P receptor. In words: Inhibition by the compound against [125I]BH-SP radioligand binding to neurokinin-1 (NK-1) receptor in human IM-9 cells at 10 uM concentration. Format: cell-based.

SMILES strings stand for the structures. Where a SMILES comes first, the peptide text is derived from it. Bridges are numbered along the chain shown (N, C = ends). [ ]: non-standard residue; d: D form. Dap = NC[C@H](N)C(=O)O

T1 sequence (P25103 whole entry): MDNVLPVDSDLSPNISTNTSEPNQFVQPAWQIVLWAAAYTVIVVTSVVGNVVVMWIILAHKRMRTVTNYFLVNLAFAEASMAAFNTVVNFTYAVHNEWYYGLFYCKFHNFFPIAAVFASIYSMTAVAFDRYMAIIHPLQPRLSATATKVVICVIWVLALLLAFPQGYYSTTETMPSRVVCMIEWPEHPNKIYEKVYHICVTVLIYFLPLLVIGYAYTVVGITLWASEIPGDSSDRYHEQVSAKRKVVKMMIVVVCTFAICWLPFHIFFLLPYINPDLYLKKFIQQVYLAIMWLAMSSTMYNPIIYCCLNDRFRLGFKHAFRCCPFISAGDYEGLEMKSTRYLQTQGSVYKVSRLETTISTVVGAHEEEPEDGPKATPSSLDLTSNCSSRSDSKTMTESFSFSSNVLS

The molecule `O=C(NCc1c[nH]c2ccccc12)N1C2CCC(C2)C1Cc1ccccc1` (stereo unspecified) showed an IC50 on Substance-P receptor [1] of 6.7 µM. Moreover, the inhibition in test [2] is 31%; in test [3], 35%.

With `CSCC[C@@H]1NC(=O)[C@H](CC(C)C)NC(=O)[C@@H]2CNC(=O)C[C@H](NC1=O)C(=O)N[C@@H](Cc1c[nH]c3ccccc13)C(=O)N[C@@H](Cc1ccccc1)C(=O)N2` (cyclo(DWF[Dap]LM); lactam 1-4), the IC50 at Substance-P receptor [1] was 0.8 µM; on Substance-K receptor, 0.079 nM; at Neuromedin-K receptor [4], “Not Active”.

At Neuromedin-K receptor [5], `O=C(NCc1cn(C(=O)OCc2ccccc2)c2ccccc12)N1C2CCC(C2)C1Cc1ccccc1` (stereo unspecified) displayed an IC50 of 10 µM. Besides, the values for the inhibition (in test [2]; at Substance-P receptor [6]) were 18% and 55%, respectively.

In turn, `O=C(Cc1c[nH]c2ccccc12)N1CCC(Cc2ccccc2)C1` (stereo unspecified) yielded an IC50 at Substance-P receptor [1] of 3.7 µM. The same molecule yielded an inhibition in test [2] of 14%.

Broadly, the IC50 is the concentration at which inhibition is half-maximal. Higher therefore signals lower potency. In general, inhibition refers to the share of the control response that was lost under treatment. A low value points to a response near the control.
